# In patent publication US20170151256A1, “ANTITUMOR AGENT” (ZERIA PHARMACEUTICAL CO., LTD., priority 2005, published 2017):
# Counter-ions that a name gives are not always drawn. Like-named read-outs stand apart in the source and are kept apart here.
# Legend:
# [1] = tested on: human colon cancer cells (HT-29); test: HT-29 subcutaneous xenograft, alone and in combination with 5-FU; assay type: in vivo, mouse
# Procedure: 1×10^6 cells of human colon cancer cells (HT-29) were subcutaneously implanted into right abdomen of female Balb/c nude mice. […] For comparison, 5-FU was intraperitoneally administered to mice in positive control groups at doses of 3, 10, and 30 mg/kg once daily for 12 days. […] On the day following the final administration, the tumor was removed and weighed. […] Percent inhibition of tumor growth was calculated based on the tumor weights in each administration groups versus that in a control group.
# [2] = tested on: human colon cancer xenograft; conditions: Non-Patent Document 14, cited from earlier work
# [3] = tested on: human pancreatic cancer PANC-1; conditions: Non-Patent Document 12, cited from earlier work
# [4] = tested on: pancreatic cancer or colon cancer xenograft; conditions: only observed at a high dose of 200 mg/kg or more; Patent Document 1; cited from earlier work
# [5] = Toxicity test through 28-day repeated oral administration to rats; assay type: in vivo
# [6] = Toxicity test through 28-day repeated oral administration to dogs; assay type: in vivo
# [7] = tested on: human pancreatic cancer cells (PAN1VC); test: PAN1VC implanted into pancreas, tumor weight, alone and with gemcitabine; assay type: in vivo, mouse; conditions: male nude mice
# Procedure: 1×10^6 cells of human pancreatic cancer cells (PAN1VC) were implanted into the pancreas of male nude mice. […] Percent inhibition of tumor growth was calculated based on the tumor weights in each administration groups versus that in a control group.
# [8] = tested on: human pancreatic cancer cells (PANC-1); test: PANC-1 implanted into pancreas, lethal model, survival rate; assay type: in vivo, mouse; conditions: gemcitabine hydrochloride 100 mg/kg i.v. on days 7, 10, 14 after implantation; 40 days after administration start (46 days after implantation); female SCID mice (control […])
# Procedure: (§1) A small piece (70 to 80 mg) of human pancreatic cancer cells (PANC-1) was implanted into the pancreas of female SCID mice (15 mice for each group). […] In another group of mice, on seven, 10, and 14 days after the implantation, gemcitabine hydrochloride (Gemzar Injection®) as a positive control was intravenously injected at a dose of 100 mg/kg.
# [9] = tested on: human pancreatic cancer cells (PANC-1); test: PANC-1 implanted into pancreas, lethal model, survival with gemcitabine combination (Table 1); assay type: in vivo, mouse; conditions: female SCID mice, compound A1 100 mg/kg oral once daily from day 7, GEM 100 mg/kg i.v. days 7, 10, 14
# Procedure: as §1, with “after” for “after the”, “Injection®)” for “Injection®) as a positive control”, “administered” for “injected”
# [10] = tested on: human colon cancer cells (C170HM2); test: C170HM2 intraperitoneal model, tumor metastasis to the liver; assay type: in vivo, mouse; conditions: 40 days after implantation, male nude mice
# Procedure: 1.5×10^6 cells of human colon cancer cells (C170HM2) were intraperitoneally injected into male nude mice. […] Meanwhile, in a positive control group, the combination of 5-fluorouracil (hereinafter called “5-FU”) and leucovorin were intravenously administered (for each compound, 25 mg/kg/injection) one, four, seven, and 10 days after tumor implantation. Forty days after implantation of C170HM2 tumor, the weight of tumor-metastasized liver was measured.
# [11] = tested on: human pancreatic cancer cells (MIAPaCa 2); test: MIAPaCa 2 subcutaneous xenograft, tumor weight; assay type: in vivo, mouse; conditions: female Balb/c nude mice
# Procedure: 3×10^6 cells of human pancreatic cancer cells (MIAPaCa 2) were subcutaneously implanted into right abdomen of female Balb/c nude mice. […] On the day following the final administration, the tumor was removed and weighed. For comparison, vehicle was orally administered to mice in a control group, and the tumor weight was measured in similar manner to that described above. Percent inhibition of tumor growth was calculated based on the tumor weights in each administration group versus that in a control group.
# [12] = tested on: human colon cancer cells (HT-29); test: HT-29 subcutaneous xenograft, tumor weight; assay type: in vivo, mouse; conditions: female Balb/c nude mice
# Procedure: 1×10^6 cells of human colon cancer cells (HT-29) were subcutaneously implanted into right abdomen of female Balb/c nude mice. […] On the day following the final administration, the tumor was removed and weighed. In a control group, vehicle was orally administered to mice, and the tumor weight was measured in similar manner to that described above. Percent inhibition of tumor growth was calculated based on the tumor weights in each administration groups versus that in a control group.
# [13] = rats, 1,000 mg/kg for 28 consecutive days (summary statement)
# [14] = dogs, 1,000 mg/kg for 28 consecutive days (summary statement)
# [15] = 30, 100, 300 or 1,000 mg/kg oral for 28 days, male and female SD rats, any group
# [16] = 30, 100, 300 or 1,000 mg/kg oral for 28 days, male and female beagle dogs, any group
compound,measurement,setting,value
"O=c1[nH]cc(F)c(=O)[nH]1 [5-FU, 5-fluorouracil]",Percent inhibition of tumor growth (tumor weight vs control),"[1]; 5-FU alone, 3 mg/kg i.p. once daily for 12 days",24%
same,Percent inhibition of tumor growth (tumor weight vs control),"[1]; 5-FU alone, 10 mg/kg i.p. once daily for 12 days",30%
same,Percent inhibition of tumor growth (tumor weight vs control),"[1]; 5-FU alone, 30 mg/kg i.p. once daily for 12 days",58%
C[C@](Cc1c[nH]c2ccccc12)(NC(=O)OC1[C@H]2C[C@@H]3C[C@@H](C[C@H]1C3)C2)C(=O)NC[C@H](NC(=O)CCC(=O)O)c1ccccc1 (some centres unmarked) [CI-988],Cell growth suppressive effect,"[2]; oral 25 mg/kg, without non-physiological gastrin stimulation",exhibits cell growth suppressive effect
same,Cell growth suppressive effect,[2]; oral 50 mg/kg,exhibits no cell growth suppressive effect
"Cc1cccc(NC(=O)N[C@@H]2N=C(c3ccccc3)c3ccccc3N(C)C2=O)c1 [L-365,260]",Gastrin-induced tumor growth,[3]; with gastrin stimulation,suppresses gastrin-induced tumor growth
same,Tumor growth without stimulation by gastrin,[3]; without gastrin stimulation,does not suppress tumor growth
CNc1cccc(NC(=O)N[C@@H]2N=C(c3ccccn3)c3ccccc3N(CC(=O)C(C)(C)C)C2=O)c1 [YF476],Tumor-shrinking effect,[4],exhibits tumor-shrinking effect
"CC(C)(C)C(=O)CN1C(=O)[C@H](NC(=O)Nc2cccc(C(=O)O)c2)CN(C2CCCCC2)c2ccccc21 [compound A, (R)-(−)-3-[3-(1-tert-butylcarbonylmethyl-2-oxo-5-cyclohexyl-1,3,4,5-tetrahydro-2H-1,5-benzodiazepin-3-yl)ureido]benzoic acid]","Abnormality in body weight, feed intake, ophthalmological test, urine test, organ weight, autopsy finding, histopathological test",[5]; [13],no abnormality was found
same,Deaths,[5]; [13],no deaths were observed
same,"Abnormality in body weight, feed intake, ophthalmological test, urine test, organ weight, autopsy finding, histopathological test",[6]; [14],no abnormality was found
same,Deaths,[6]; [14],no deaths were observed
Nc1ccn([C@@H]2O[C@H](CO)[C@@H](O)C2(F)F)c(=O)n1 [gemcitabine hydrochloride],Percent inhibition of tumor growth (tumor weight vs control),"[7]; gemcitabine hydrochloride alone, 5 mg/kg i.v. on days 1, 3, 6 after implantation",32%
same,Survival rate,[8],93.3%
same,Survival rate at 60 days after initiation of administration (66 days after implantation),[9]; alone or combined (control 0),0%
same,Median survival time,[9]; alone or combined (control 39),48 days
same,Survival rate at 50 days after initiation of administration (56 days after implantation),[9]; alone or combined (control 40),20%
same,Average survival time,[9]; alone or combined (control 43),46.9 days
same,Days of death of the last individual,[9]; alone or combined (control 56),54 days
"calcium (R)-(−)-3-[3-(1-tert-butylcarbonylmethyl-2-oxo-5-cyclohexyl-1,3,4,5-tetrahydro-2H-1,5-benzodiazepin-3-yl)ureido]benzoate [compound A1]",Inhibition of tumor metastasis to the liver (weight of tumor-metastasized liver),[10]; 3 mg/kg oral once daily,73%
same,Inhibition of tumor metastasis to the liver (weight of tumor-metastasized liver),[10]; 30 mg/kg oral once daily,81%
same,"Abnormality in body weight, feed intake, ophthalmological test, urine test, organ weight, autopsy finding, histopathological test",[5]; [15],no abnormality was found
same,Deaths,[5]; [15],no deaths were observed
same,Percent inhibition of tumor growth (tumor weight vs control),"[7]; compound A1 alone, 30 mg/kg oral once daily for 36 days",19%
same,Percent inhibition of tumor growth (tumor weight vs control),"[7]; compound A1 alone, 100 mg/kg oral once daily for 36 days",23%
same,Percent inhibition of tumor growth (tumor weight vs control),[11]; 30 mg/kg oral once daily for 21 days,40%
same,Percent inhibition of tumor growth (tumor weight vs control),[11]; 100 mg/kg oral once daily for 21 days,42%
same,Percent inhibition of tumor growth (tumor weight vs control),[12]; 30 mg/kg oral once daily for 17 days from 4 days after implantation,44%
same,Percent inhibition of tumor growth (tumor weight vs control),[12]; 100 mg/kg oral once daily for 17 days from 4 days after implantation,50%
same,"Abnormality in body weight, feed intake, ophthalmological test, electrocardiogram, blood pressure, urine test, hematological test, blood biochemical test, organ weight, autopsy finding",[6]; [16],no abnormality was found
same,Deaths,[6]; [16],no deaths were observed
same,Percent inhibition of tumor growth (tumor weight vs control),"[1]; compound A1 alone, 30 mg/kg oral once daily for 12 days from 10 days after implantation",34%
